Test system: B16-F1 mouse melanoma cell line
Experiment: B16 melanin synthesis inhibition assay
Assay type: cell-based
Conditions: B16-F1 cells, OD 410 nm
Procedure: In this example, a commercially available B16-F1 mouse melanoma cell line from American Tissue Culture Collection, Virginia, USA was employed in a conventional melanin synthesis inhibition assay. The cell culture medium used in the assay is 500 mL of Dulbecco's Modified Eagle's Medium (DMEM), 50 mL Fetal Bovine Serum (FBS), and 5 mL of penicillin-streptomycin liquid. B16-F1 cells that are cultured in this medium and grown to greater than 90% confluency will synthesize melanin. While not intending to be bound by any theory, it is hypothesized that the melanin synthesis is stimulated by the culture medium and/or stress induced by growth to a high confluency. […] Equipment used in the assay include a CO2 incubator, such as a Forma Series Model 3110 by Therma Scientific, Massachusetts, USA; a hemocytometer, such as a Bright Line model by Hauser Scientific, Pennsylvania, USA; and a UV-Visible Spectrum Plate Reader, such as a SpectraMax250 from Molecular Devices, California, USA. […] Day 3: The cells from the T-150 flask are trypsinized, and the concentration of cells is determined using the hemacytometer. […] Read the 96 well plate using the UV-Vis Plate Reader at 410 nm to optically measure the amount of melanin produced between wells that are treated with the fava bean extract and control wells that are not. […] The concentration of test agent needed to provide the IC 50 is recorded. […]

Compound	Concentration Needed for IC 50 [v/v]
Oc1ccc(OC2CCCCO2)cc1 (centres unmarked) [Deoxyarbutin]	0.008
O=c1cc(CO)occ1O [Kojic Acid]	0.01

— US20170296456A1, “PRODUCTS AND METHODS FOR TREATING PERIORBITAL DYSCHROMIA” (The Procter & Gamble Company, priority 2016, published 2017)
